Measurements from patent US5352462A, “Anti-inflammatory factor, method of isolation, and use” (Stolle Research & Development Corporation, priority 1992, dated 1994).

Tests used:
[1] = tested on: carrageenan-induced footpad edema; assay: Quantitative rat paw edema test with 125I-HSA; format: in vivo; conditions: aspirin 200 mg/kg oral, 30 min prior
Protocol: Peak I from the G-10 column, supplied by Stolle Milk Biologics International, was prepared according to the methods described in U.S. Pat. No. 4,956,349. Lactose, obtained from commercial sources, was used as placebo. Aspirin was used as a positive control. Aspirin was dissolved in water and given orally by gastric gavage at the ratio of 200 mg per kilogram, a dose known to be active in the assay. […] The footpad assay was modified by using isotopically labeled human serum albumin (^125 I-HSA) that localizes in the carrageenan-induced lesion in direct proportion to the volume of the exudate. By determining the total radioactive count in the footpad and comparing this to the counts in a known volume of plasma from the injected animal, a direct measurement of edema in microliters of plasma equivalents is obtained. ^125 I-HSA was injected intravenously at a dose of 1.0 microcurie per rat. Female Dark Agouti rats were used. […]
To conduct the carrageenan footpad assay, 0.1 ml of 2% carrageenan was injected subcutaneously into each hind foot pad of an anesthetized rat. […] Both hind feet were then removed and the levels of radioactivity in each foot and in the 200 μl plasma standard were measured in an automated gamma counter. From these measurements the volume of edema in each foot was calculated and expressed in microliters. […]

[2] = tested on: reverse passive Arthus reaction; assay: Reverse passive Arthus reaction; format: in vivo, rat; conditions: 20 mg i.v.
Protocol: The possibility that the anti-inflammatory factor might affect neutrophil involvement was investigated by evaluating the ability of the material to modulate the reverse passive Arthus reaction (RPA). This immune complex-induced response is primarily neutrophil mediated and agents which affect the development of the reaction do so via an effect on these cells. To induce the RPA, rats were injected intradermally with rabbit antibody to ovalbumin and intravenously with native ovalbumin. Ovalbumin/ovalbumin-antibody immune complexes form in and around the dermal blood vessel walls, host neutrophils bind to the Fc portion of the antibody and an intense inflammatory reaction is initiated. It should be noted that, although the response is initiated by immune-complexes, it takes place independently of the host's immune system.
Three parameters are used to quantify the RPA. These are, (1) edema--measured using the accumulation of ^125 I-HSA, (2) hemorrhage--assessed by in vivo pre-labelling RBC's with ^59 Fe and (3) neutrophil accumulation--measured by determining tissue levels of the neutrophils specific enzyme myeloperoxidase (MPO). These assays are known to those of ordinary skill in the art.
Eighteen rats were divided into three groups of six. Rabbit antiovalbumin (40 μl) was injected intradermally at four sites on the back of each animal and 2 mg of ovalbumin injected intravenously immediately afterwards. One group of animals received no other treatment and served as controls. The second group were injected intravenously with 20 mg of a lactose preparation, while the final group were injected intravenously with 20 mg of a purified preparation of MAIF. Both lactose and MAIF preparation were administered with the ovalbumin. The severity of the reaction was assessed 3.5 hours after challenge.

[3] = tested on: superoxide production by neutrophils; assay: Superoxide assay, cytochrome C reduction by stimulated neutrophils; format: cell-based, human
Protocol: Neutrophils from healthy donors were purified by dextran sedimentation followed by hypotonic lysis and Histopaque centrifugation. Except for the dextran sedimentation step, which was performed at room temperature, the cells were kept at 4° C. throughout the isolation procedure. […] After isolation, neutrophils were resuspended at a final concentration of 2×10^6 cells/ml in phosphate buffered saline (PBS). […] After washing, neutrophils were incubated in the dark at 4° C. for 30 minutes with saturating concentrations of fluorescein-conjugated murine anti-human CD18, human CD11 b, IGG coated microbeads (Simply Cellular™ microbeads) or the murine negative control antibody.
The reduction of cytochrome C by activated neutrophils was measured using a spectrophotometer (Hitachi U2000) at 550 nm. Briefly, sample was added to two cuvettes and one cuvette was used as a reference. The latter contained superoxide dismutase (superoxide scavenger). […] Superoxide production was measured for 3 min.

[4] = tested on: circulating neutrophils and lymphocytes; assay: Circulating leucocytes after i.v. administration; format: in vivo, rat
Protocol: Two experiments were done. In the first, the MAIF preparation was administered intravenously at a dose of 40 mg/rat to one group of 6 animals and a control group was injected with saline. Blood samples were obtained at baseline, 1, 4, and 24 hours after treatment.
A further dose-response study was carried out in which a group of rats were injected intravenously with saline, 5, 10 or 20 mg of the MAIF preparation. Blood from each rat had been taken 7 days previously to provide baseline values and was taken again 4 hours after the injection of MAIF. Included on the graph are the results obtained from the sample taken 4 hours after the administration of 40 mg the MAIF preparation (see FIG. 31).
Data were also obtained pertaining to the effect of three other cell-targeted, anti-inflammatory/immunomodulatory agents on circulating leucocytes in the rat. […] The temporal relationship between drug administration and effect is somewhat different. […] The effects of the anti-inflammatory factor would appear to closely parallel the action of methyl-prednisolone.

[5] = tested on: neutrophil adhesion to venular endothelium; assay: Intravital microscopy of PAF-exposed rat mesenteric venules; format: in vivo; conditions: PAF superfusion 100 nM, 60 min
Protocol: The temperature of the pedestal was maintained at 37° C. with a constant temperature circulator (Fisher Scientific, model 80).

CC(=O)Oc1ccccc1C(=O)O [aspirin, Acetylsalicylic acid]
inhibition of edema [1]: inhibited

OC[C@H]1O[C@@H](O[C@H]2[C@H](O)[C@@H](O)C(O)O[C@@H]2CO)[C@H](O)[C@@H](O)[C@H]1O (stereo partly drawn) [Lactose]
suppression of neutrophil accumulation and hemorrhage [2]: modest and marginally significant suppression | Haemorrhage: μl of RBC ([2]; 3.5 hours after challenge): 3.0 ± 1.5 μl of RBC | Neutrophil accumulation: Units of MPO ([2]; 3.5 hours after challenge): 0.214 ± .176 Units of MPO | μl of Edema ([2]; 3.5 hours after challenge): 104 ± 23 µL

superoxide dismutase
cytochrome c reduction by PMA and fMLP-stimulated neutrophils [3]: completely blocked

O=P1(N(CCCl)CCCl)NCCCO1 (stereo not drawn) [cyclophosphamide]
circulating lymphocytes and neutrophils ([4]; comparator agents): depletes both circulating lymphocytes and neutrophils

C[C@H]1C[C@@H]2[C@H]([C@@H](O)C[C@@]3(C)[C@H]2CC[C@]3(O)C(=O)CO)[C@@]2(C)C=CC(=O)C=C12 [methylprednisolone]
lymphocyte/neutrophil ratio ([4]; rat, in vivo): analogous to that seen with MAIF

CCCCCCCCCCCCCCCCOCC(COP(=O)([O-])OCC[N+](C)(C)C)OC(C)=O (stereo not drawn) [PAF]
increase in neutrophil adhesion to postcapillary venules [5]: approximately 6 fold
